In patent publication US9902713B2, “Neuroprotective compounds and use thereof” (BOARD OF REGENTS OF THE UNIVERSITY OF TEXAS SYSTEM, priority 2013, dated 2018):

Experiments:
[1] = Pharmacokinetic analysis, plasma and brain levels
[2] = test system: hippocampal CA1 Schaffer-collateral pathway; assay: Hippocampal electrophysiology (LTP, PPF) after blast-mediated TBI; format: in vivo, mice
Description: To test our hypothesis that performance in the Barnes maze was associated with hippocampal function, we investigated synaptic plasticity in the hippocampus. Specifically, we measured both long-term potentiation (LTP) and paired pulse facilitation (PPF) in brain slices derived from mice exposed to blast-injury as a function of treatment with different doses of P7C3-S243 for 9 days, initiated 24 hours after injury, in animals not subjected to behavioral testing. The stimulating electrode activated CA3 Schaeffer collateral axons, and the recording electrode was placed in the stratum radiatum of the CA1 region, where Schaffer collateral axons synapse with dendrites from CA1 pyramidal cells. […] Thus, dose-dependent protective efficacy of P7C3-S243 in behavioral tasks of learning and memory correlated with hippocampal function.
Electrophysiology. Single-housed, naïve 7- to 9-week-old male C57BL/6J mice received intraperitoneal injections of P7C3-S243 (0.3, 3, or 30 mg/kg/day) or vehicle 24 h following a single sham- or blast-Injury. On the tenth day after injury, coronal hippocampal slices (400 μm) were prepared, in accordance with the University of Iowa guidelines. Briefly, hippocampal slices were cut using a Vibratome 1000 Plus (Vibratome, St. Louis, Mo.) in ice-cold slicing buffer (in mM: 127 NaCl, 26 NaHCO3, 1.2 KH2PO4, 1.9 KCl, 1.1 CaCl2, 2 MgSO4, 10 D-Glucose) bubbled with 95% 02 and 5% CO2. Slices were then transferred to a holding chamber containing oxygenated artificial cerebrospinal fluid (ACSF; in mM: 127 NaCl, 26 NaHCO3, 1.2 KH2PO4, 1.9 KCl, 2.2 CaCl2, 1 MgSO4, 10 D-Glucose) for 30 min at 34 C and for another 30 min at 22° C. for recovery, and then transferred to a submersion recording chamber continually perfused with 32° C. oxygenated ACSF (rate: 2 ml/min). Slices were equilibrated for at least 15 min before each recording.
ACSF-filled glass electrodes (resistance <1 MΩ) were positioned in the stratum radiatum of area CA1 for extracellular recording. Synaptic responses were evoked by stimulating Schaffer collaterals with 0.2 ms pulses once every 15 s. […] Experiments with maximal fEPSPs of less than 0.5 mV, with large fiber volleys, or with substantial changes in the fiber volley during recording were rejected. LTP was induced by 12TBS (12 bursts, each of 4 pulses at 100 Hz).
Field EPSPs were recorded (AxoClamp 900A amplifier, Axon Instruments, Foster City, Calif.), filtered at 1 kHz, digitized at 10 kHz (Axon Digidata 1440), and stored for off-line analysis (Clampfit 10). Initial slopes of fEPSPs were expressed as percentages of baseline averages. In summary graphs, each point represents the average of 4 consecutive responses. The time-matched, normalized data were averaged across experiments.

[3] = test system: 47 neuronal receptors and channels; assay: NIH Psychoactive Drug Screening Program panel; format: binding
[4] = test system: hippocampal CA1 neurons, myelin and mitochondria; assay: Toluidine blue staining and TEM of hippocampus after blast-injury; format: in vivo, mice
Description: To further examine hippocampal structural pathology, we turned to ultrathin ([…]) section histology using toluidine blue staining, as well as transmission electron microscopy (TEM) (FIG. 31). […] In blast-injured animals, however, we observed accumulation of chromatolytic and pyknotic neurons in the CA1 stratum pyramidale, accompanied by decreased dendritic extensions in the stratum radiatum, indicating general ongoing pathologic processes associated with neurodegeneration and consistent with our electrophysiologic data in FIG. 17.
The stratum radiatum is where CA3 Schaeffer collateral axons synapse with dendrites of CA1 pyramidal cells. This was the circuit we investigated electrophysiologically (FIG. 17), and we next turned to TEM to further characterize blast-injury induced axonal degeneration. […] These axons contained intact and healthy-appearing mitochondria.
Toluidine blue staining and transmission electron microscopy (TEM). Mice were transcardially perfused with Karnovsky's fixative solution (2% formaldehyde, 2.5% glutaraldehyde, 0.2M sodium cacodylate buffer, 1 mM CaCl2, 2 mM MgCl2, and 42.8 mM NaCl, pH 7.4) two weeks after either sham- or blast-Injury and with or without specified compound treatment. Harvested brains were incubated in Karnovsky's overnight at 4° C. Whole brains were cut in the horizontal plane (100 μm) using a vibratome (Leica 1500). Sections that contained the hippocampus were selected, washed with 0.1M sodium cacodylate buffer and then post fixed with 1% osmium fixative for 1 hr. After washing in 0.1M sodium cacodylate buffer, sections were dehydrated in a series of ethanol (50%, 75%, 95% and 100% ethanol) followed by embedding in EPON resin overnight at 65° C. For toluidine blue staining, semithin sections (1 μm) were cut with an ultramicrotome (Leica UC6) and stained with toluidine blue. Pictures were taken using an upright microscope (Zeiss Axio Imager.M2) with a color camera (AxioCam ICc5). For TEM, ultrathin sections (60 nm) adjacent to the semithin sections were cut with an ultramicrotome, loaded onto a Formvar 200-mesh Ni grid, and counterstained with uranyl acetate and lead citrate. Specimens were examined using a JEOL JEM 1230 electron microscope with a Gatan UltraScan 1000 2 k×2 k CCD camera. See also FIG. 31.

[5] = molecular target: μ-opioid receptor (Homo sapiens, UniProt P35372); assay: Ligand displacement (Psychoactive Drug Screening Program); format: binding
[6] = molecular target: hERG (Homo sapiens, UniProt Q12809); assay: hERG patch clamp assay
[7] = test system: U2OS cells; assay: Protection from doxorubicin-mediated toxicity (Dox:Tox); format: cell-based
[8] = test system: intracellular levels of NAD; assay: Intracellular NAD levels by mass spectrometry; format: cell-based; settings: 3 uM, 12 hrs
Excerpt: Cultured cells were exposed to varying levels of “A20” (X-axis) for 12 hrs. Intracellular levels of NAD (Y-axis) were monitored by mass spectrometry.

[9] = blast-injured, oral 0.3 mg/kg/day

Sequence of hERG (Q12809 whole entry): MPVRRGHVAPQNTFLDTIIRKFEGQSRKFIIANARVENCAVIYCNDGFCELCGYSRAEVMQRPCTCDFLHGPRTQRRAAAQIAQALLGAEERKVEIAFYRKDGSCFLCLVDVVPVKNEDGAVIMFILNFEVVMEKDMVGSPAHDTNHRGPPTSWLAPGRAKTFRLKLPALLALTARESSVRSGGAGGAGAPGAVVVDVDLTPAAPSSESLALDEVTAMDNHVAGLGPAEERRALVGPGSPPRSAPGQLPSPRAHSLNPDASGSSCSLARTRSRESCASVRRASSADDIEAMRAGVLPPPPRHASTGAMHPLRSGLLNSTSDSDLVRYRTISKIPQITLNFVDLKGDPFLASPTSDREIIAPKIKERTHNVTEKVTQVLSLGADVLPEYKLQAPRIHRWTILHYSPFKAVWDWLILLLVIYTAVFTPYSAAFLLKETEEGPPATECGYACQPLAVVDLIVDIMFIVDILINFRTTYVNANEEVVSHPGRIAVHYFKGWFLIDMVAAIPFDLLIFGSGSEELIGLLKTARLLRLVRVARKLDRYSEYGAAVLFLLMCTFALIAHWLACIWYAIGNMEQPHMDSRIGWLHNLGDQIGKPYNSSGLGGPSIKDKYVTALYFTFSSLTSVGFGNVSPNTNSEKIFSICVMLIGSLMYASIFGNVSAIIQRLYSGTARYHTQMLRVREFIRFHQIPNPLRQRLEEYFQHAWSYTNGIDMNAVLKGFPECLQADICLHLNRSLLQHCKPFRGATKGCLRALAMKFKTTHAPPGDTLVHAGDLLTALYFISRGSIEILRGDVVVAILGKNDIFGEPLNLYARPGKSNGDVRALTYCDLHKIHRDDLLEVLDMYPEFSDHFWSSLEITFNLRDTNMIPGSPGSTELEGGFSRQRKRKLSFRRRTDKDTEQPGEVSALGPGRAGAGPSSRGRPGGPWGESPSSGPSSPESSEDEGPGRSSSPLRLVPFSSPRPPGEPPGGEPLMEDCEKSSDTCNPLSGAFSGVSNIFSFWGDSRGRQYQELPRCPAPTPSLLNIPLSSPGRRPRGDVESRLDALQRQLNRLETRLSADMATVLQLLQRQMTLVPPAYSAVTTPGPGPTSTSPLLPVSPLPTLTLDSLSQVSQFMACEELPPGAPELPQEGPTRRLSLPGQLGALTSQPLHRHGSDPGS
Sequence of μ-opioid receptor (P35372 whole entry, species assumed): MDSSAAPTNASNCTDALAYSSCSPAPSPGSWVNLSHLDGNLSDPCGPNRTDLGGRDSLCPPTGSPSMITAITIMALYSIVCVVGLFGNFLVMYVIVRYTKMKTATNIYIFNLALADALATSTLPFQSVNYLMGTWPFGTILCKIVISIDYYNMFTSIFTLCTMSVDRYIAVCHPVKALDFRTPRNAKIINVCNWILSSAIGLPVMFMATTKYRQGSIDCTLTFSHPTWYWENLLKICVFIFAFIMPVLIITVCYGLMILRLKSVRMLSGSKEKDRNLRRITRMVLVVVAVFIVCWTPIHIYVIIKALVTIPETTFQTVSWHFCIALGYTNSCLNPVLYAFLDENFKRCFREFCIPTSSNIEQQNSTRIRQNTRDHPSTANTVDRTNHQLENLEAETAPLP

## COc1cccc(NCC(F)Cn2c3ccc(Br)cc3c3cc(Br)ccc32)n1 (racemic) [P7C3-S243, N-(3-(3,6-dibromo-9H-carbazol-9-yl)-2-fluoropropyl)-6-methoxypyridin-2-amine]
[1]; IP 10 mg/kg
  % F (brain): 28%
  % F (plasma): 66%
  AUC(brain): 189 ± 35 µg·min/g
  T1/2: >24 h
[1]; IP 20 mg/kg
  % F (brain): 48%
  AUC(brain): 319 ± 68 µg·min/g
  T1/2: 15 h
[1]; IV 10 mg/kg
  AUC(brain): 671 ± 14 µg·min/g
  T1/2: 7.4 h
[1]; PO 20 mg/kg
  AUC(brain): 388 ± 29 µg·min/g
  T1/2: 9.6 h
[1]; all routes of administration
  metabolic stability in vivo: metabolically stable
[1]; following IP dosing
  brain levels: dose-proportional increase
[2]; 0.3 mg/kg/d from 24 hours after injury
  blast-induced LTP deficit: not rescued
[2]; 0.3 mg/kg/day
  blast-induced deficits in LTP and PPF: had no effect
[2]; 3 and 30 mg/kg/d
  blast-induced PPF deficit, 50 ms inter-pulse interval: rescued
[2]; 3 and 30 mg/kg/d from 24 hours after injury
  blast-induced LTP deficit: rescued

## COc1cccc(NCC(F)Cn2c3ccc(Br)cc3c3cc(Br)ccc32)n1 (single isomer, unassigned; (-)) [(−)-P7C3-S243, (−)-N-(3-(3,6-dibromo-9H-carbazol-9-yl)-2-fluoropropyl)-6-methoxypyridin-2-amine]
[3]
  binding partners among 47 neuronal receptors and channels: no compelling binding partners were identified
[4]; [9]
  CA1 histology (toluidine blue): these same pathologic features were present
  axons and neuronal mitochondria (TEM): degenerating axons with characteristic unraveling of the myelin sheath
[4]; blast-injured, oral 3 mg/kg/d
  axons and neuronal mitochondria (TEM): partial resolution of pathological signs
[4]; blast-injured, oral 3 mg/kg/day
  CA1 histology (toluidine blue): partially preserve dendritic extension
[4]; blast-injured, oral 30 mg/kg/d
  CA1 histology (toluidine blue): fully preserved all structural aspects
  axons and neuronal mitochondria (TEM): full protection
[4]; sham-injured, oral 30 mg/kg/d
  CA1 histology (toluidine blue): did not change
[4]; sham-injury, oral 30 mg/kg/d
  axons and neuronal mitochondria (TEM): normally myelinated axons
[5]
  IC50: 8.2 µM
[6]
  inhibition at 50 µM: < 15%

## COc1cccc(NCC(F)Cn2c3ccc(Br)cc3c3cc(Br)ccc32)c1 (stereo not shown) [P7C3-A20, N-(3-(3,6-dibromo-9H-carbazol-9-yl)-2-fluoropropyl)-3-methoxyaniline]
[7]
  level of compound required for maximal Dox:Tox protection: 3 µM
[7]; U2OS cells, FIG. 11
  protection from doxorubicin-mediated cell toxicity: dose-responsive activity
[8]
  maximal enhancement of NAD: 20-30%
